Assay results taken from patent publication US20240182445A1 (ONO PHARMACEUTICAL CO., LTD., priority 2019, published 2024).

Target: T1, human TREK-1 (Homo sapiens, UniProt O95069)
T1 construct: expressed in transfected cells
T1 sequence (O95069 1-426): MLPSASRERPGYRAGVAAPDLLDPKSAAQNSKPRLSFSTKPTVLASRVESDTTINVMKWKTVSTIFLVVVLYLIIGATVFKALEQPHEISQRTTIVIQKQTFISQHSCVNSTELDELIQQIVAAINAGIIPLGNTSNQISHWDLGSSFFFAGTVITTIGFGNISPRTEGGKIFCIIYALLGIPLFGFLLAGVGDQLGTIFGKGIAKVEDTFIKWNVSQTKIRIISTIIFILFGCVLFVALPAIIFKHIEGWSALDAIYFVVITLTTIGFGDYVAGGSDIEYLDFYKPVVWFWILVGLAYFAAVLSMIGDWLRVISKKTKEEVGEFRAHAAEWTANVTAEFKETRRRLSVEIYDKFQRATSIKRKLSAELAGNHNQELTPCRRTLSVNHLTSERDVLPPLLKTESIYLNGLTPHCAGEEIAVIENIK
Assay: TREK-1 Thallium (Tl+) flux assay, Method 1
Format: cell-based
Conditions: TREK-1 Thallium (Tl+) flux assay; no *^12 (Method 2) mark on these rows
Procedure, shortened: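 CHO-K1 cells stably expressing human TREK-1, loaded with Thallos dye, received compound or 0.3% DMSO vehicle for 10 min before thallium stimulus buffer. ΔRatio is fluorescence at 25 s after thallium addition over mean pre-addition fluorescence; % inhibition calculated from it.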

Row | Compound | IC50 [nM]
1 | CC(C)(C)OC(=O)N[C@H]1C[C@@H](n2ncc(Cl)c2C(=O)Nc2ncc(C#Cc3ccccc3)cc2F)C1 [Compound 325, tert-butyl (cis-3-(4-chloro-5-((3-fluoro-5-(phenylethynyl)pyridin-2-yl)carbamoyl)-1H-pyrazol-1-yl)cyclobutyl)carbamate] | 640
2 | CC(=O)N1CC2CC(C1)C2Cn1ncc(Cl)c1C(=O)Nc1ncc(C#Cc2ccccc2)cc1F (stereo not drawn) [Compound 326, 1-((3-acetyl-3-azabicyclo[3.1.1]heptan-6-yl)methyl)-4-chloro-N-(3-fluoro-5-(phenylethynyl)pyridin-2-yl)-1H-pyrazole-5-carboxamide] | 640
3 | Cc1cc(C#Cc2ccccc2)cnc1NC(=O)c1c(Cl)cnn1C1CCCOC1 (stereo not drawn) [Compound 327, 4-chloro-N-(3-methyl-5-(phenylethynyl)pyridin-2-yl)-1-(tetrahydro-2H-pyran-3-yl)-1H-pyrazole-5-carboxamide] | 650
4 | Cc1cc(C#Cc2ccccc2)cnc1NC(=O)c1c(Cl)cnn1C1CCN(C(=O)OC(C)(C)C)CC1 [Compound 328] | 650
5 | Cc1cc(C#Cc2ccccc2)cnc1NC(=O)c1c(Cl)cnn1[C@H]1C[C@@H]2CN(C(=O)OC(C)(C)C)C[C@@H]2C1 [Compound 329, tert-butyl (3aR,5s,6aS)-5-(4-chloro-5-{[3-methyl-5-(phenylethynyl)pyridin-2-yl]carbamoyl}-1H-pyrazol-1-yl)hexahydrocyclopenta[c]pyrrole-2(1H)-carboxylate] | 650
6 | Cc1cc(C#Cc2ccccc2)cnc1NC(=O)c1c(Cl)cnn1C1CC2(C1)CN(C(=O)OC(C)(C)C)C2 [Compound 330, tert-butyl 6-(4-chloro-5-((3-methyl-5-(phenylethynyl)pyridin-2-yl)carbamoyl)-1H-pyrazol-1-yl)-2-azaspiro[3.3]heptane-2-carboxylate] | 650
7 | CC(=O)N1C[C@H]2C[C@H](n3ncc(Cl)c3C(=O)Nc3ncc(C#Cc4ccc(F)cc4)cc3C)C[C@H]2C1 [Compound 331, 1-[(3aR,5s,6aS)-2-acetyloctahydrocyclopenta[c]pyrrol-5-yl]-4-chloro-N-{5-[(4-fluorophenyl)ethynyl]-3-methylpyridin-2-yl}-1H-pyrazole-5-carboxamide] | 660
8 | Cc1cc(C#Cc2ccc(F)cc2)cnc1NC(=O)c1c(Cl)cnn1C1CC2(CCN(C(=O)C(C)C)C2)C1 (stereo not drawn) [Compound 332, 4-chloro-N-{5-[(4-fluorophenyl)ethynyl]-3-methylpyridin-2-yl}-1-[6-(2-methylpropanoyl)-6-azaspiro[3.4]octan-2-yl]-1H-pyrazole-5-carboxamide] | 660
9 | Cc1cc(C#Cc2cccc(F)c2)cnc1NC(=O)c1c(Cl)cnn1[C@H]1CCOC1 [Compound 333, (S)-4-chloro-N-(5-((3-fluorophenyl)ethynyl)-3-methylpyridin-2-yl)-1-(tetrahydrofuran-3-yl)-1H-pyrazole-5-carboxamide] | 670
10 | CC(C)(C)OC(=O)N1CC2(CC(n3ncc(Cl)c3C(=O)Nc3ncc(C#Cc4ccccc4)cc3F)C2)C1 [Compound 334, tert-butyl 6-(4-chloro-5-((3-fluoro-5-(phenylethynyl)pyridin-2-yl)carbamoyl)-1H-pyrazol-1-yl)-2-azaspiro[3.3]heptane-2-carboxylate] | 670
11 | CC(C)(C)OC(=O)N1CCC(n2ncc(Cl)c2C(=O)Nc2ncc(C#Cc3cccs3)cc2F)CC1 [Compound 335, tert-butyl 4-(4-chloro-5-((3-fluoro-5-(thiophen-2-ylethynyl)pyridin-2-yl)carbamoyl)-1H-pyrazol-1-yl)piperidine-1-carboxylate] | 700
12 | CC(C)(C)OC(=O)N1CC[C@@H](n2ncc(Cl)c2C(=O)Nc2ncc(C#Cc3ccccc3)cc2F)[C@H](F)C1 [Compound 337, tert-butyl (3R,4R)-4-(4-chloro-5-((3-fluoro-5-(phenylethynyl)pyridin-2-yl)carbamoyl)-1H-pyrazol-1-yl)-3-fluoropiperidine-1-carboxylate] | 720
13 | Cc1cc(C#Cc2ccccc2)cnc1NC(=O)c1c(Cl)cnn1C[C@@H]1COCCO1 [Compound 338, (R)-1-((1,4-dioxan-2-yl)methyl)-4-chloro-N-(3-methyl-5-(phenylethynyl)pyridin-2-yl)-1H-pyrazole-5-carboxamide] | 730
14 | Cc1cc(C#Cc2ccc(F)cc2)cnc1NC(=O)c1c(Cl)cnn1CC1(F)CCN(C(=O)C(C)C)CC1 [Compound 339, 4-chloro-1-((4-fluoro-1-isobutyrylpiperidin-4-yl)methyl)-N-(5-((4-fluorophenyl)ethynyl)-3-methylpyridin-2-yl)-1H-pyrazole-5-carboxamide] | 730
15 | Cc1cc(C#Cc2ccccc2)cnc1NC(=O)c1c(Cl)cnn1CC1CC(C)OC(C)C1 (stereo not drawn) [Compound 340, 4-chloro-1-((2,6-dimethyltetrahydro-2H-pyran-4-yl)methyl)-N-(3-methyl-5-(phenylethynyl)pyridin-2-yl)-1H-pyrazole-5-carboxamide] | 740
16 | CC(=O)N1CC[C@@H](Cn2ncc(Cl)c2C(=O)Nc2ncc(C#Cc3ccc(F)cc3)cc2C)[C@H](F)C1 [Compound 341, 1-(((3S,4S)-1-acetyl-3-fluoropiperidin-4-yl)methyl)-4-chloro-N-(5-((4-fluorophenyl)ethynyl)-3-methylpyridin-2-yl)-1H-pyrazole-5-carboxamide] | 740
17 | Cc1cc(C#Cc2ccc(F)cc2)cnc1NC(=O)c1c(Cl)nn(C)c1-c1ccc2c(cnn2C)c1 [Compound 342, 3-chloro-N-(5-((4-fluorophenyl)ethynyl)-3-methylpyridin-2-yl)-1-methyl-5-(1-methyl-1H-indazol-5-yl)-1H-pyrazole-4-carboxamide] | 750
18 | Cc1cc(C#Cc2cccs2)cnc1NC(=O)c1c(Cl)cnn1C[C@H]1COCCO1 [Compound 343, (S)-1-((1,4-dioxan-2-yl)methyl)-4-chloro-N-(3-methyl-5-(thiophen-2-ylethynyl)pyridin-2-yl)-1H-pyrazole-5-carboxamide] | 760
19 | Cc1cc(C#Cc2ccc(F)cc2)cnc1NC(=O)c1c(Cl)cnn1C[C@@H]1CCCN(C(=O)OC(C)(C)C)C1 [Compound 344, tert-butyl (R)-3-((4-chloro-5-((5-((4-fluorophenyl)ethynyl)-3-methylpyridin-2-yl)carbamoyl)-1H-pyrazol-1-yl)methyl)piperidine-1-carboxylate] | 760
20 | Cc1cc(C#Cc2ccccc2)cnc1NC(=O)c1c(Cl)cnn1CC1CCCO1 (stereo not drawn) [Compound 345, 4-chloro-N-(3-methyl-5-(phenylethynyl)pyridin-2-yl)-1-((tetrahydrofuran-2-yl)methyl)-1H-pyrazole-5-carboxamide] | 770
21 | CC(C)(C)OC(=O)N1CCC2(CC1)CC(n1ncc(Cl)c1C(=O)Nc1ncc(C#Cc3ccccc3)cc1F)C2 [Compound 346, tert-butyl 2-(4-chloro-5-((3-fluoro-5-(phenylethynyl)pyridin-2-yl)carbamoyl)-1H-pyrazol-1-yl)-7-azaspiro[3.5]nonane-7-carboxylate] | 770
22 | CCC(=O)N1CCOC(Cn2ncc(Cl)c2C(=O)Nc2ncc(C#Cc3ccc(F)cc3)cc2C)C1 (stereo not drawn) [Compound 347, 4-chloro-N-(5-((4-fluorophenyl)ethynyl)-3-methylpyridin-2-yl)-1-((4-propionylmorpholin-2-yl)methyl)-1H-pyrazole-5-carboxamide] | 770
23 | Cc1cc(C#Cc2ccc(F)cc2)cnc1NC(=O)c1c(Cl)cnn1CC1(F)CCN(C(=O)C2CC2C)CC1 (stereo not drawn) [Compound 348, 4-chloro-1-((4-fluoro-1-(2-methylcyclopropane-1-carbonyl)piperidin-4-yl)methyl)-N-(5-((4-fluorophenyl)ethynyl)-3-methylpyridin-2-yl)-1H-pyrazole-5-carboxamide] | 780
24 | Cc1cc(C#Cc2cccc(F)c2)cnc1NC(=O)c1c(Cl)cnn1[C@H]1C[C@@H]2CN(C(=O)C(C)C)C[C@@H]2C1 [Compound 349, 4-chloro-N-{5-[(3-fluorophenyl)ethynyl]-3-methylpyridin-2-yl}-1-[(3aR,5s,6aS)-2-(2-methylpropanoyl)octahydrocyclopenta [c]pyrrol-5-yl]-1H-pyrazole-5-carboxamide] | 810
25 | Cc1cc(C#Cc2ccc(F)cc2)cnc1NC(=O)c1c(Cl)cnn1CC1CCN(C(=O)C(C)C)CC1(F)F (stereo not drawn) [Compound 350, 4-chloro-1-((3,3-difluoro-1-isobutyrylpiperidin-4-yl)methyl)-N-(5-((4-fluorophenyl)ethynyl)-3-methylpyridin-2-yl)-1H-pyrazole-5-carboxamide] | 820
26 | CC(=O)N[C@H]1C[C@H](n2ncc(Cl)c2C(=O)Nc2ncc(C#Cc3ccc(F)cc3)cc2C)C1 [Compound 351, 1-(trans-3-acetamidocyclobutyl)-4-chloro-N-(5-((4-fluorophenyl)ethynyl)-3-methylpyridin-2-yl)-1H-pyrazole-5-carboxamide] | 820
27 | Cc1cc(C#Cc2ccccc2)cnc1NC(=O)c1c(Cl)cnn1[C@H]1C[C@@H]2CN(C(=O)C(C)(C)C)C[C@@H]2C1 [Compound 352, 4-chloro-1-[(3aR,5s,6aS)-2-(2,2-dimethylpropanoyl)octahydrocyclopenta [c]pyrrol-5-yl]-N-[3-methyl-5-(phenylethynyl)pyridin-2-yl]-1H-pyrazole-5-carboxamide] | 840
